From article PMC9747329 (ACS chemical biology, 2022)
Non-standard residues stand in square brackets, D forms with d. Residues, ends and D or L forms follow the SMILES beside them. *: point of attachment. X1 = CN(C)c1ccc2c(-c3cc(C(=O)*)ccc3C(=O)[O-])c3ccc(=[N+](C)C)cc-3oc2c1; hArg = N=C(N)NCCCC[C@H](N)C(=O)O; Aib = CC(C)(N)C(=O)O

Legend:
nLuc-ΔECD-PTHR1 = target: T1, nLuc-ΔECD-PTHR1 (Homo sapiens, UniProt Q03431); assay: NanoBRET direct binding on truncated receptor lacking the extracellular domain
T1 sequence (Q03431 182-593 limits assumed): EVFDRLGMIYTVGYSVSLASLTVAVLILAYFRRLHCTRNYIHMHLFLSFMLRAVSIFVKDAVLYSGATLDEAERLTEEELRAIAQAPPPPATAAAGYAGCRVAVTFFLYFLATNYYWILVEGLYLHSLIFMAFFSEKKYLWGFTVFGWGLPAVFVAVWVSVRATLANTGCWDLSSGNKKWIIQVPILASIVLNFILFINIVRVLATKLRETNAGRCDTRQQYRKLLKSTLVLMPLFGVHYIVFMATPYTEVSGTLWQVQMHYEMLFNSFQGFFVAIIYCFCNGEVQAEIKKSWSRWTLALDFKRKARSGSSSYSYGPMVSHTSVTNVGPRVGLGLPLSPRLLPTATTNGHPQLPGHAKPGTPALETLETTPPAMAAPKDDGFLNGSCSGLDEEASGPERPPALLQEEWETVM

nLuc-PTHR1 [1] = target: T2, nLuc-PTHR1 (Homo sapiens, UniProt Q03431); format: binding; details: HEK293
T2 sequence (Q03431 27-593): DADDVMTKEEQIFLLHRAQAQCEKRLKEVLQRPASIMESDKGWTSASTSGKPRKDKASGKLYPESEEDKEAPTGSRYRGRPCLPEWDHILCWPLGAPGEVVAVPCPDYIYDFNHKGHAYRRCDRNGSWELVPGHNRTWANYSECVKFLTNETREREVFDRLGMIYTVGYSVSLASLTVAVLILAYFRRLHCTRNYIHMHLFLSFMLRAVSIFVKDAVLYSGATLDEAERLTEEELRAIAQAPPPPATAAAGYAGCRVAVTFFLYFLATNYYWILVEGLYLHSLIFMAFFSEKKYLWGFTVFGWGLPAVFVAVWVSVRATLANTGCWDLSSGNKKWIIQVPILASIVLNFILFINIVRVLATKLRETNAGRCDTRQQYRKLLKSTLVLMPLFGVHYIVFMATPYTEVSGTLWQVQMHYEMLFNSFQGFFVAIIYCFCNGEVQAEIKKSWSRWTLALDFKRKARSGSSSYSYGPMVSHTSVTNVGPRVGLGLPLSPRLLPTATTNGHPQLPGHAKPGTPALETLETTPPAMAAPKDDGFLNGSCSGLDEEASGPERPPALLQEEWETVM

WT-PTHR1 = target: T3, WT-PTHR1 (Homo sapiens, UniProt Q03431); assay: GloSensor cAMP assay in GP2.3 cells; format: cell-based; details: HEK293, read-out: cAMP formation %Emax
T3 sequence (Q03431 27-593): T2 sequence (Q03431 27-593)

nLuc-PTHR1 [2] = target: T2, nLuc-PTHR1; assay: NanoBRET equilibrium competition binding with tracer PTH; details: ABL up to 1 μM

Molecule	koff (nLuc-ΔECD-PTHR1)	kon (nLuc-ΔECD-PTHR1)	koff (nLuc-PTHR1 [1])	kon (nLuc-PTHR1 [1])	Emax (WT-PTHR1)	displacement of PTH(1-34)K35^TMR tracer (in words) (nLuc-PTHR1 [2])
CC[C@H](C)[C@H](NC(=O)[C@H](CC(C)C)NC(=O)[C@H](CCCCN)NC(=O)[C@H](Cc1c[nH]cn1)NC(=O)[C@H](CC(C)C)NC(=O)[C@H](Cc1ccccc1)NC(=O)[C@H](C)NC(=O)[C@H](CCCNC(=N)N)NC(=O)[C@H](CCCNC(=N)N)NC(=O)[C@H](CCCNC(=N)N)NC(=O)[C@H](C)NC(=O)[C@H](CC(=O)O)NC(=O)[C@H](CCC(N)=O)NC(=O)[C@@H](NC(=O)[C@H](Cc1c[nH]c2ccccc12)NC(=O)[C@H](CCCCN)NC(=O)[C@H](C)NC(=O)[C@H](CCCNC(=N)N)NC(=O)[C@H](CCC(N)=O)NC(=O)[C@H](Cc1c[nH]cn1)NC(=O)[C@H](CCSC)NC(=O)[C@H](CC(C)C)NC(=O)[C@H](CCC(N)=O)NC(=O)[C@@H](NC(=O)[C@H](CCC(=O)O)NC(=O)[C@H](C)NC(=O)[C@@H](NC(=O)[C@H](C)N)C(C)C)[C@@H](C)CC)[C@@H](C)CC)C(=O)N[C@@H](C)C(=O)N[C@@H](CCC(=O)O)C(=O)N[C@H](C(=O)N[C@@H](Cc1c[nH]cn1)C(=O)N[C@H](C(=O)N[C@@H](C)C(=O)N[C@@H](CCCCNC(=O)c1ccc(C(=O)[O-])c(-c2c3ccc(=[N+](C)C)cc-3oc3cc(N(C)C)ccc23)c1)C(N)=O)[C@@H](C)O)[C@@H](C)CC [LA-PTH(1-34)-35K^TMR] (H-AVAEIQLMHQRAKWIQDARRRAFLHKLIAEIHTAK(X1)-NH2; N-terminus assumed)	0.0097 ± 0.003 s⁻¹	130000 ± 10000 M⁻¹ s⁻¹	0.00056 ± 0.0002 s⁻¹	230000 ± 40000 M⁻¹ s⁻¹	–	–
CC[C@H](C)[C@H](NC(=O)[C@H](CCC(=O)O)NC(=O)C(C)(C)NC(=O)[C@@H](NC(=O)C(C)(C)N)C(C)C)C(=O)N[C@@H](CCC(N)=O)C(=O)N[C@@H](CC(C)C)C(=O)N[C@@H](CCSC)C(=O)N[C@@H](Cc1c[nH]cn1)C(=O)N[C@@H](CCC(N)=O)C(=O)N[C@@H](CCCCNC(=N)N)C(=O)N[C@@H](C)C(=O)N[C@@H](CCCCN)C(=O)N[C@@H](Cc1c[nH]c2ccccc12)C(=O)N[C@@H](CCCCNC(=O)c1ccc(C(=O)[O-])c(-c2c3ccc(=[N+](C)C)cc-3oc3cc(N(C)C)ccc23)c1)C(N)=O [M-PTH(1-14)-15K^TMR] (H-[Aib]V[Aib]EIQLMHQ[hArg]AKWK(X1)-NH2; N-terminus assumed)	0.018 ± 0.003 s⁻¹	180000 ± 50000 M⁻¹ s⁻¹	0.024 ± 0.001 s⁻¹	77000 ± 20000 M⁻¹ s⁻¹	–	–
CC[C@H](C)[C@H](NC(=O)[C@H](CCCCNC(=O)c1ccc(C(=O)[O-])c(-c2c3ccc(=[N+](C)C)cc-3oc3cc(N(C)C)ccc23)c1)NC(=O)[C@H](C)NC(=O)[C@@H](NC(=O)[C@H](Cc1c[nH]cn1)NC(=O)[C@@H](NC(=O)[C@H](CCC(=O)O)NC(=O)[C@H](C)NC(=O)[C@@H](NC(=O)[C@H](CC(C)C)NC(=O)[C@H](Cc1c[nH]cn1)NC(=O)[C@H](Cc1c[nH]cn1)NC(=O)[C@H](CC(C)C)NC(=O)[C@H](Cc1ccccc1)NC(=O)[C@H](Cc1ccccc1)NC(=O)[C@H](CCCNC(=N)N)NC(=O)[C@H](CCCNC(=N)N)NC(=O)[C@H](CCCNC(=N)N)NC(=O)[C@H](CCSC)NC(=O)[C@H](CO)NC(=O)[C@H](CC(N)=O)NC(=O)[C@H](CC(C)C)NC(=O)[C@H](Cc1c[nH]cn1)NC(=O)[C@H](CCCCN)NC(=O)CNC(=O)[C@H](CC(C)C)NC(=O)[C@H](CC(N)=O)NC(=O)[C@H](Cc1c[nH]cn1)NC(=O)[C@H](CCSC)NC(=O)[C@H](CC(C)C)NC(=O)[C@H](CCC(N)=O)NC(=O)[C@@H](NC(=O)[C@H](CCC(=O)O)NC(=O)[C@H](CO)NC(=O)[C@@H](NC(=O)[C@@H](N)CO)C(C)C)[C@@H](C)CC)[C@@H](C)CC)[C@@H](C)CC)[C@@H](C)O)C(N)=O [PTH[1-18] PTHrP[19-36]] (H-SVSEIQLMHNLGKHLNSMRRRFFLHHLIAEIHTAK(X1)I-NH2; N-terminus assumed)	–	–	0.0079 ± 0.001 s⁻¹	320000 ± 70000 M⁻¹ s⁻¹	106 ± 1%	–
ABL: synthetic analogue of PTHrP(1-34) used clinically for osteoporosis	–	–	–	–	–	failed to fully inhibit
